Laboratory results: patent publication US11633459B2, “GIP derivatives and uses thereof” (priority 2018, dated 2023)
*1 amine or outer side, *2 acyl side, *3 side chain or, on linkers, in order; H or OH if unused. Where a SMILES comes first, the peptide text is derived from it. Where no end group is shown, it is not given here. Side-chain parts run from the residue outwards. [ ]: non-standard residue; d: D form. The star is where a group is joined. X1 = O=C(O)CCCCCCCCCCCCCCCCCCC(=O)NCC1CCC(C(=O)*)CC1; C18 diacid = O=C(O)CCCCCCCCCCCCCCCCC(=O)*; γGlu = O=C(O)[C@H](CCC(=O)[*:2])N[*:1]; Nle = CCCC[C@H](N)C(=O)O; Aib = CC(C)(N)C(=O)O

Tests used:
[1] = Pharmacokinetic study in minipigs, terminal half-life after i.v. administration; conditions: female, Göttingen, minipig, plasma, iv, 5 nmol/kg
Method: Pharmacokinetic Study in Minipigs
The purpose of this study is to determine the half-life in vivo of the derivatives of the present invention after i.v. administration to minipigs, i.e. the prolongation of their time in the body and thereby their time of action. This is done in a pharmacokinetic (PK) study, where the terminal half-life of the derivative in question is determined. By terminal half-life is generally meant the period of time it takes to halve a certain plasma concentration, measured after the initial distribution phase.
Female Göttingen minipigs were obtained from Ellegaard Göttingen Minipigs (Dalmose, Denmark) approximately 7-14 months of age and weighing from approximately 16-35 kg were used in the studies. The minipigs were housed individually and fed restrictedly once daily with SDS minipig diet (Special Diets Services, Essex, UK).
After at 3 weeks of acclimatisation two permanent central venous catheters were implanted in vena cava caudalis in each animal. The animals were allowed 1 week recovery after the surgery, and were then used for repeated pharmacokinetic studies with a suitable wash-out period between successive derivative dosing.
Blood samples (for example 0.8 ml) were collected in EDTA buffer (8 mM) and then centrifuged at 4° C. and 1942G for 10 minutes.
Individual plasma concentration-time profiles were analysed by a non-compartmental model in Phoenix WinNonLin ver. […] (Pharsight Inc., Mountain View, Calif., USA), and the resulting terminal half-lives (harmonic mean) determined.

human GIP receptor = biological target: T1, human GIP receptor (Homo sapiens, UniProt P48546); assay: In vitro potency, CRE luciferase reporter gene assay, whole BHK cells expressing human GIP receptor; format: cell-based; conditions: 0.2% HSA
T1 construct: expressed in transfected cells; host or cells: BHK cells (parent line BHKTS13), clone BHK CRE luc2P hGIPR clone #5
T1 sequence (P48546 22-466): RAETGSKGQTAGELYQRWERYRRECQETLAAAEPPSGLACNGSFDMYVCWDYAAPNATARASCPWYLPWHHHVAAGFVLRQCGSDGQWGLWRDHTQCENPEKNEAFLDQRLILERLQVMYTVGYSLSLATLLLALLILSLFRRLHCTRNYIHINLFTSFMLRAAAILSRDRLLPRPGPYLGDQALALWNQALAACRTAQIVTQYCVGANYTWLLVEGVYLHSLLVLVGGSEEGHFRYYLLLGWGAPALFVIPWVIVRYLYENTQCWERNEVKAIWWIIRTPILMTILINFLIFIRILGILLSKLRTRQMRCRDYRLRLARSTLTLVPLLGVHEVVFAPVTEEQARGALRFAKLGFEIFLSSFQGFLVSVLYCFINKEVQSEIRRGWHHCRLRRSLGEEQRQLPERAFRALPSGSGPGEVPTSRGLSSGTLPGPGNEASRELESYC
Method: In Vitro Potency (CRE Luciferase; Whole Cells)
The in vitro potency is the measure of human GIP, GLP-1 or glucagon receptor activation, respectively, in a whole cell assay.
In vitro potency was determined by measuring the response of the human GIP, GLP-1 or glucagon receptor in a reporter gene assay in individual cell lines. […] When the respective receptor is activated it results in the production of cAMP, which in turn results in the luciferase protein being expressed. When assay incubation is completed the luciferase substrate (luciferin) is added and the enzyme converts luciferin to oxyluciferin to produce bioluminescence. The luminescence is measured as the readout for the assay.
The cells were derived from a clone containing the CRE luciferase element and were established by further transfection with the respective receptor to obtain the current clone.
The cells were cultured at 5% CO2 in Cell Culture Medium. They were aliquoted and stored in liquid nitrogen. The cells were kept in passage and were seeded out the day before each assay.
The Assay Buffer consisted of 1% ovalbumin and 0.1% Pluronic F-68 in Assay Medium with the addition of human serum albumin at twice the indicated concentrations.
1) Cells were plated at 5000 cells/well and incubated overnight.
2) Cells were washed three times in PBS.
3) Assay Medium (50 μl aliquot) with or without serum albumin was added to each well in the assay plate.
4) Stocks of the test compounds and reference compounds were diluted to a concentration of 0.2 μM in Assay Buffer. […] 8) The cells were washed three times with PBS plus some liquid in each well. 9) A 100 μl aliquot of steadylite plus reagent was added to each well of the assay plate (reagent was light sensitive). 10) Each assay plate was covered with aluminum foil to protect it from light and shaken for 30 min at room temperature. 11) Each assay plate was read in a microtiter plate reader. Calculations and Results
The data from the microtiter plate reader was transferred to GraphPad Prism software. The software performs a non-linear regression (log(agonist) vs response).
A minimum of two replicates was measured for each sample. The reported values are averages of the replicates.

EC50 (human GIP receptor) [nM]	Molecule	half-life [1] [h]
	CCCC[C@H](NC(=O)[C@H](C)NC(=O)[C@@H](NC(=O)[C@H](CO)NC(=O)[C@H](Cc1ccc(O)cc1)NC(=O)[C@H](CC(=O)O)NC(=O)[C@H](CO)NC(=O)[C@@H](NC(=O)[C@H](Cc1ccccc1)NC(=O)[C@@H](NC(=O)CNC(=O)[C@H](CCC(=O)O)NC(=O)[C@H](C)NC(=O)[C@@H](Cc1ccc(O)cc1)NC(C)=O)[C@@H](C)O)[C@@H](C)CC)[C@@H](C)CC)C(=O)N[C@@H](CC(=O)O)C(=O)N[C@@H](CCCCN)C(=O)N[C@H](C(=O)N[C@@H](CCCNC(=N)N)C(=O)N[C@@H](CCC(N)=O)C(=O)N[C@@H](CCC(N)=O)C(=O)N[C@@H](CC(=O)O)C(=O)N[C@@H](Cc1ccccc1)C(=O)N[C@H](C(=O)N[C@@H](CCCCNC(=O)CC[C@H](NC(=O)CC[C@H](NC(=O)CC[C@H](NC(=O)C1CCC(CNC(=O)CCCCCCCCCCCCCCCCCCC(=O)O)CC1)C(=O)O)C(=O)O)C(=O)O)C(=O)N[C@@H](Cc1c[nH]c2ccccc12)C(=O)N[C@@H](CC(C)C)C(=O)N[C@@H](CC(C)C)C(=O)N[C@@H](C)C(=O)N[C@@H](CCC(N)=O)C(=O)N[C@@H](CCCCN)C(=O)NCC(=O)O)C(C)C)[C@@H](C)CC (stereo partly drawn) [Compound 8, N{1}-acetyl,N{Epsilon-24}-[(4S)-4-carboxy-4-[[(4S)-4-carboxy-4-[[(4S)-4-carboxy-4-[[4-[(19-carboxynonadecanoylamino)methyl]cyclohexanecarbonyl]amino]-butanoyl]amino]butanoyl]amino]butanoyl]-[D-Tyr1,Nle14,Arg18,Lys24]-hGIP(1-31)]	106
	CCCC[C@H](NC(=O)[C@H](C)NC(=O)[C@@H](NC(=O)[C@H](CO)NC(=O)[C@H](Cc1ccc(O)cc1)NC(=O)[C@H](CC(=O)O)NC(=O)[C@H](CO)NC(=O)[C@@H](NC(=O)[C@H](Cc1ccccc1)NC(=O)[C@@H](NC(=O)CNC(=O)[C@H](CCC(=O)O)NC(=O)C(C)(C)NC(=O)[C@@H](N)Cc1ccc(O)cc1)[C@@H](C)O)[C@@H](C)CC)[C@@H](C)CC)C(=O)N[C@@H](CC(=O)O)C(=O)N[C@@H](CCCCN)C(=O)N[C@H](C(=O)N[C@@H](CCCNC(=N)N)C(=O)N[C@@H](CCC(N)=O)C(=O)N[C@@H](CCC(N)=O)C(=O)N[C@@H](CC(=O)O)C(=O)N[C@@H](Cc1ccccc1)C(=O)N[C@H](C(=O)N[C@@H](CCCCNC(=O)CC[C@H](NC(=O)CC[C@H](NC(=O)CC[C@H](NC(=O)C1CCC(CNC(=O)CCCCCCCCCCCCCCCCCCC(=O)O)CC1)C(=O)O)C(=O)O)C(=O)O)C(=O)N[C@@H](Cc1c[nH]c2ccccc12)C(=O)N[C@@H](CC(C)C)C(=O)N[C@@H](CC(C)C)C(=O)N[C@@H](C)C(=O)N[C@@H](CCC(N)=O)C(=O)N[C@@H](CCCCN)C(=O)N1CCC[C@H]1C(N)=O)C(C)C)[C@@H](C)CC (stereo partly drawn) [Compound 26, N{Epsilon-24}-[(4S)-4-carboxy-4-[[(4S)-4-carboxy-4-[[(4S)-4-carboxy-4-[[4-[(19-carboxynonadecanoylamino)methyl]cyclohexanecarbonyl]amino]butanoyl]amino]-butanoyl]amino]butanoyl]-[Aib2,Nle14,Arg18,Lys24,Pro31]-hGIP(1-31) amide]	109
	CCCC[C@H](NC(=O)[C@H](C)NC(=O)[C@@H](NC(=O)[C@H](CO)NC(=O)[C@H](Cc1ccc(O)cc1)NC(=O)[C@H](CC(=O)O)NC(=O)[C@H](CO)NC(=O)[C@@H](NC(=O)[C@H](Cc1ccccc1)NC(=O)[C@@H](NC(=O)CNC(=O)[C@H](CCC(=O)O)NC(=O)C(C)(C)NC(=O)[C@@H](N)Cc1ccc(O)cc1)[C@@H](C)O)[C@@H](C)CC)[C@@H](C)CC)C(=O)N[C@@H](CC(=O)O)C(=O)N[C@@H](CCCCN)C(=O)N[C@H](C(=O)N[C@@H](Cc1c[nH]cn1)C(=O)N[C@@H](CCC(N)=O)C(=O)N[C@@H](CCC(N)=O)C(=O)N[C@@H](CC(=O)O)C(=O)N[C@@H](Cc1ccccc1)C(=O)N[C@H](C(=O)N[C@@H](CCCCNC(=O)CC[C@H](NC(=O)CC[C@H](NC(=O)CC[C@H](NC(=O)C1CCC(CNC(=O)CCCCCCCCCCCCCCCCCCC(=O)O)CC1)C(=O)O)C(=O)O)C(=O)O)C(=O)N[C@@H](Cc1c[nH]c2ccccc12)C(=O)N[C@@H](CC(C)C)C(=O)N[C@@H](CC(C)C)C(=O)N[C@@H](C)C(=O)N[C@@H](CCC(N)=O)C(=O)N[C@@H](CCCCN)C(=O)N1CCC[C@H]1C(N)=O)C(C)C)[C@@H](C)CC (stereo partly drawn) [Compound 27, N{Epsilon-24}-[(4S)-4-carboxy-4-[[(4S)-4-carboxy-4-[[(4S)-4-carboxy-4-[[4-[(19-carboxynonadecanoylamino)methyl]cyclohexanecarbonyl]amino]butanoyl]amino]-butanoyl]amino]butanoyl]-[Aib2,Nle14,Lys24,Pro31]-hGIP(1-31) amide] (H-Y[Aib]EGTFISDYSIA[Nle]DKIHQQDFVK([γGlu-γGlu-γGlu-X1])WLLAQKP-NH2)	147
	CCCC[C@H](NC(=O)[C@H](C)NC(=O)[C@@H](NC(=O)[C@H](CO)NC(=O)[C@H](Cc1ccc(O)cc1)NC(=O)[C@H](CC(=O)O)NC(=O)[C@H](CO)NC(=O)[C@@H](NC(=O)[C@H](Cc1ccccc1)NC(=O)[C@@H](NC(=O)CNC(=O)[C@H](CCC(=O)O)NC(=O)[C@H](C)NC(=O)[C@@H](Cc1ccc(O)cc1)NC(C)=O)[C@@H](C)O)[C@@H](C)CC)[C@@H](C)CC)C(=O)N[C@@H](CC(=O)O)C(=O)N[C@@H](CCCCN)C(=O)N[C@H](C(=O)N[C@@H](CCCNC(=N)N)C(=O)N[C@@H](CCC(N)=O)C(=O)N[C@@H](CCC(N)=O)C(=O)N[C@@H](CC(=O)O)C(=O)N[C@@H](Cc1ccccc1)C(=O)N[C@H](C(=O)N[C@@H](CCCCNC(=O)CC[C@H](NC(=O)CC[C@H](NC(=O)CC[C@H](NC(=O)C1CCC(CNC(=O)CCCCCCCCCCCCCCCCCCC(=O)O)CC1)C(=O)O)C(=O)O)C(=O)O)C(=O)N[C@@H](Cc1c[nH]c2ccccc12)C(=O)N[C@@H](CC(C)C)C(=O)N[C@@H](CC(C)C)C(=O)N[C@@H](C)C(=O)N[C@@H](CCC(N)=O)C(=O)N[C@@H](CCCCN)C(=O)N1CCC[C@H]1C(N)=O)C(C)C)[C@@H](C)CC (stereo partly drawn) [Compound 28, N{1}-acetyl,N{Epsilon-24}-[(4S)-4-carboxy-4-[[(4S)-4-carboxy-4-[[(4S)-4-carboxy-4-[[4-[(19-carboxynonadecanoylamino)methyl]cyclohexanecarbonyl]amino]butanoyl]-amino]butanoyl]amino]butanoyl]-[D-Tyr1,Nle14,Arg18,Lys24,Pro31]-hGIP(1-31) amide] (Ac-[dY]AEGTFISDYSIA[Nle]DKIRQQDFVK([γGlu-γGlu-γGlu-X1])WLLAQKP-NH2)	104
0.0213	H-Y[Aib]EGTFISDYSIA[Nle]DKIHQQDFVK([γGlu-γGlu-γGlu-C18 diacid])WLLAQKGKENDWKHNITQ [Compound 33, N{Epsilon-24}-[(4S)-4-carboxy-4-[[(4S)-4-carboxy-4-[[(4S)-4-carboxy-4-(17-carboxyheptadecanoylamino)butanoyl]amino]butanoyl]amino]butanoyl]-[Aib2,Nle14,Lys24,Glu33]-hGIP]	
